From US5654308A (priority 1990, dated 1997)
Counter-ions that a name gives are not always drawn.

target: T1, acetylcholine esterase (Mus musculus, UniProt P21836); assay: biochemical; settings: not given
T1 construct: using a mouse brain homogenate as the acetylcholine esterase source; from tissue; host or cells: mouse brain homogenate
T1 sequence (P21836 32-614): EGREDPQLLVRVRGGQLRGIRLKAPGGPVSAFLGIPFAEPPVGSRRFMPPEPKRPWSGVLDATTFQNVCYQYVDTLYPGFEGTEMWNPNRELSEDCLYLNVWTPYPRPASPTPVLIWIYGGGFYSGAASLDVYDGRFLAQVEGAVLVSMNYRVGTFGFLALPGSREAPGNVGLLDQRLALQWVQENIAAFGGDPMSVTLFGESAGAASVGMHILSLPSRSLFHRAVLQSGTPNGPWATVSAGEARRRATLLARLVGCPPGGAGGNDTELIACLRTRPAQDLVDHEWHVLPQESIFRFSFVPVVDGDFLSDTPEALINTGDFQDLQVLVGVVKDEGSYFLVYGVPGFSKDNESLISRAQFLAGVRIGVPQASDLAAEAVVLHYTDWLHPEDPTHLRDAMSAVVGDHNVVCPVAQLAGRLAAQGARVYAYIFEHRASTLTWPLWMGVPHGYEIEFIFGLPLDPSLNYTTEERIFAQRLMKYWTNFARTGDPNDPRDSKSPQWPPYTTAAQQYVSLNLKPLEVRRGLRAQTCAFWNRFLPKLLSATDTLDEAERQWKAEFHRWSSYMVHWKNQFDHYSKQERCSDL

Compound	IC50
O=c1[nH]c2ncccc2c(=O)n1CCC1CCN(Cc2ccncc2)CC1 [Example 71]	137 nM
COc1ccc2oc(=O)n(CCC3CCN(CC4CCCC4)CC3)c(=O)c2c1 [Example 6, 3-[2-(1-Cyclopentylmethyl-4-piperidyl)-6-methoxy-ethyl]-2H-3,4-dihydro-1,3-benzoxazine-2,4-dione hydrochloride]	4.86 nM
O=C(c1ccccc1)C1CC(=O)N(C2CCN(Cc3ccccc3)CC2)C1 (centres unmarked) [Example 65]	34000 nM
Cc1ccc2oc(=O)n(CCC3CCN(Cc4ccccc4)CC3)c(=O)c2n1 [Example 64]	9.11 nM
COc1ccc2oc(=O)n(CCC3CCN(Cc4cccc(F)c4)CC3)c(=O)c2c1 [Example 53]	0.18 nM
Cc1ccc2oc(=O)n(CCC3CCN(Cc4ccccc4)CC3)c(=O)c2c1 [Example 37]	2.97 nM
Cc1ccc2c(n1)CN(CCC1CCN(Cc3ccccc3)CC1)C(=S)O2 [Example 9, 3-[2-(1-Benzyl-4-piperidyl)ethyl]-2H-3,4-dihydro-6-methylpyrido[2,3-d]-m-oxazine-2-thione hydrochloride]	8.38 nM
O=C1Oc2ccccc2CN1CCC1CCN(Cc2ccccc2)CC1 [Example 2, 3-[2-(1-Benzyl-4-piperidyl)ethyl]-2H-3,4-dihydro-1,3-benzoxazin-2-one hydrochloride]	4.94 nM
O=c1[nH]c2nccnc2c(=O)n1CCC1CCN(Cc2ccccc2)CC1 [Example 10, 3-[2-{4 [(1-Benzyl)piperidyl]}ethyl]pyrazino[2,3-d]-pyprimidine-2,4-dione fumarate]	31.8 nM
C=C1c2nccnc2C(=O)N1CCC1CCN(Cc2ccccc2)CC1 [Example 12, 1-[2-{4-[(1-Benzyl)piperidyl]}ethyl]-7-methylenepiperazino[2,3-c]pyrrolidin-2-one fumarate]	1.82 nM
O=C1CC(Cc2ccccc2)CN1CCC1CCN(Cc2ccccc2)CC1 (centres unmarked) [Example 14, 1-[2-{(4-[(1-Benzyl)piperidyl]}ethyl]-4-benzylpyrrolidin-2-one hydrochloride]	23.8 nM
C=C1c2ccccc2C(=O)N1CCC1CCN(Cc2ccccc2)CC1 [Example 27]	45.4 nM
COc1ccc2c(c1)OC(=O)N(CCC1CCN(Cc3ccccc3)CC1)C2 [Example 24]	1.87 nM
Nc1ccc2c(c1)CN(CCC1CCN(Cc3ccccc3)CC1)C(=O)O2 [Example 35]	1.85 nM
O=C1Oc2c(Cl)cc(Cl)cc2CN1CCC1CCN(Cc2ccncc2)CC1 [Example 30]	29.1 nM
O=c1oc2ccccc2c(=O)n1CCC1CCN(Cc2ccccc2)CC1 [Example 3, 3-[2-(1-Benzyl-4-piperidyl)ethyl]-2H-3,4-dihydro-1,3-benzoxazine-2,4-dione hydrochloride]	8.52 nM
CC1(O)c2nccnc2C(=O)N1CCC1CCN(Cc2ccccc2)CC1 (centres unmarked) [Example 11, 1-[2-{4-[(1-Benzyl)piperidyl]}ethyl]-7-hydroxy-7-methylpiperazino[2,3-c]pyrrolidin-2-one]	99.6 nM
COc1ccc2c(c1)CN(CCC1CCN(Cc3ccncc3)CC1)C(=O)O2 [Example 4, 3-{2-[1-(4-Pyridylmethyl)-4-piperidyl]ethyl}-6-methoxy-2H-3,4-dihydro-1,3-benzoxazin-2-one dihydrochloride]	7.93 nM
O=c1oc2ccc(F)cc2c(=O)n1CCC1CCN(CC2OCCO2)CC1 [Example 40]	1020 nM
COc1cccc2c1OC(=O)N(CCC1CCN(Cc3ccccc3)CC1)C2 [Example 25]	2.74 nM

Compound	IC50
COc1ccc2c(c1)CN(CCC1CCN(Cc3cccc(F)c3)CC1)C(=O)O2 [Example 54]	0.34 nM
COc1ccc2oc(=O)n(CCC3CCN(CC4CCCCC4)CC3)c(=O)c2c1 [Example 43]	2.96 nM
COc1cccc2c1CN(CCC1CCN(CC3OCCO3)CC1)C(=O)O2 [Example 52]	64.9 nM
O=C1Oc2ccc(Cl)cc2CN1CCC1CCN(Cc2ccccc2)CC1 [Example 32]	1.39 nM
COc1cc(OC)c2c(c1)OC(=O)N(CCC1CCN(Cc3ccccc3)CC1)C2 [Example 28]	0.38 nM
CC(=O)Nc1ccc2c(c1)CN(CCC1CCN(Cc3ccccc3)CC1)C(=O)O2 [Example 36]	1.17 nM
COc1ccc2c(c1)CN(CCC1CCN(Cc3ccccc3)CC1)C(=O)O2 [Example 26]	0.5 nM
COc1ccc2oc(=O)n(CCC3CCN(Cc4ccoc4)CC3)c(=O)c2c1 [Example 46]	11.4 nM
CCOc1ccc(C(=O)C2CC(=O)N(CCC3CCN(Cc4ccccc4)CC3)C2)cc1 (centres unmarked) [Example 75]	20.8 nM
CCOc1ccccc1C(=O)C1CC(=O)N(CCC2CCN(Cc3ccccc3)CC2)C1 (centres unmarked) [Example 74]	27.7 nM
COc1ccc2oc(=O)n(CCC3CCN(CC4OCCO4)CC3)c(=O)c2c1 [Example 7, 3-{2-[1-(1,3-Dioxolan-2-ylmethyl)-4-piperidyl]ethyl}-6-methoxy-2H-3,4-dihydro-1,3-benzoxazine-2,4-dione hydrochloride]	124 nM
COc1ccc2oc(=O)n(CCC3CCN(Cc4ccccc4)CC3)c(=O)c2c1 [Example 38]	0.7 nM
O=C1Nc2ncccc2CN1CCC1CCN(CC2OCCO2)CC1 [Example 66]	288 nM
COc1ccc2c(c1)CN(CCC1CCN(CC3CCCC3)CC1)C(=O)O2 [Example 41]	4.64 nM
COc1cccc2c1CN(CCC1CCN(Cc3ccccc3)CC1)C(=O)O2 [Example 1, 3-[2-(1-Benzyl-4-piperidyl)ethyl]-5-methoxy-2H-3,4-dihydro-1,3-benzoxazin-2-one hydrochloride]	0.03 nM
O=C1Oc2ccc([N+](=O)[O-])cc2CN1CCC1CCN(Cc2ccccc2)CC1 [Example 31]	0.58 nM
O=c1oc2ccc(F)cc2c(=O)n1CCC1CCN(Cc2ccccc2)CC1 [Example 39]	7.79 nM
O=C1Oc2ccc([N+](=O)[O-])cc2CN1CCC1CCN(Cc2ccncc2)CC1 [Example 34]	13.8 nM
COc1ccc2c(c1)CN(CCC1CCN(CC3CCCCC3)CC1)C(=O)O2 [Example 42]	3.92 nM

same assay, conditions: read-out: AChE inhibiting activity IC50

Compound	IC50
COc1ccc2c(c1)CN(CCC1CCN(CC3OCCO3)CC1)C(=O)O2 [Example 5, 3-{2-[1-(1,3-Dioxolan-2-ylmethyl)}-4-piperidine]ethyl}-6-methoxy-2H-3,4-dihydro-1,3-benzoxazin-2-one hydrochloride]	49.5 nM
O=c1[nH]c2c([N+](=O)[O-])cccc2c(=O)n1CCC1CCN(CC2OCCO2)CC1 [Example 68]	220 nM
O=C(c1ccccc1)C1CC(=O)N(CCC2CCN(Cc3ccccc3)CC2)C1 (centres unmarked) [Example 13, 1-[2-{4-[(1-Benzyl)piperidyl]}ethyl]-4-benzoylpyrrolidin-2-one hydrochloride]	20.3 nM
COc1ccc2c(c1)CN(CCC1CCN(Cc3ccoc3)CC1)C(=O)O2 [Example 44]	5.04 nM
O=C1CCCc2cccnc2N1CCC1CCN(Cc2ccccc2)CC1 [Example 20]	69.1 nM
